Measured values reported in US12377119B2, “Natural killer cells” (IMPERIAL COLLEGE INNOVATIONS LIMITED, priority 2018, dated 2025).
“Also recorded” adds a separate entry of the source.

Legend:
REV-ERBα = molecular target: T1, REV-ERBα (Homo sapiens, UniProt P20393); assay: Dual-luciferase Bmal-luc reporter assay in HEK293T cells transfected with REV-ERBα; type: cell-based; settings: 10 μM
T1 construct: expressed in transfected cells; host or cells: HEK293T
T1 sequence (P20393 1-614): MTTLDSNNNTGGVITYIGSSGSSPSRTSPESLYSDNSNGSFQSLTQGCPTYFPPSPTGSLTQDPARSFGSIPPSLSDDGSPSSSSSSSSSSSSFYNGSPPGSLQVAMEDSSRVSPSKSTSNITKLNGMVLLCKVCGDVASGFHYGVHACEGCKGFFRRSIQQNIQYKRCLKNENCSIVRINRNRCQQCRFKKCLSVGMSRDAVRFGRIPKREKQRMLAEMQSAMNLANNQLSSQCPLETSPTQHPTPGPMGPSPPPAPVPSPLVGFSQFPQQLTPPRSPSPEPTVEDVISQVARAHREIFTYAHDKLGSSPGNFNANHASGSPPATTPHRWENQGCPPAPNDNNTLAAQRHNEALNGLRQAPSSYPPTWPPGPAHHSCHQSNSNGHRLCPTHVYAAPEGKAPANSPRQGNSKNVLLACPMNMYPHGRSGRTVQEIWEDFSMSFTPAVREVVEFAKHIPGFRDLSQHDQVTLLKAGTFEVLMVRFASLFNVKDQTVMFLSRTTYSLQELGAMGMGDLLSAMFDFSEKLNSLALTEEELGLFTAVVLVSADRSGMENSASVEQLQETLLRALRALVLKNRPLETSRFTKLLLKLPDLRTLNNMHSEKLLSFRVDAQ
Protocol: HEK293T cells were defrosted and maintained in DMEM supplemented with 10% FCS and 1% P/S at 37° C. and 5% CO2. Cells were plated in a 24-well plate (7·10^4 cells/well in 0.5 mL of DMEM+10% FCS). 24 h after seeding, cells were transfected with 100 ng of Bmal-luc, 10 ng of pRL-CMV Renilla as an internal control and 10 ng of REV-ERBα or the empty vector pcDNA3 as a control. All conditions were equalled to a total of 400 ng of DNA by using BSM. In order to prepare transfection samples, calculated amounts of DNA needed for each condition were prepared in Opti-MEM and Fugene was added in a 5:2 Fugene:DNA ratio. Mixtures were vortexed to assure homogeneity and left to incubate for 15 min at rt. Afterwards, each DNA mix was transferred into the 24-well plate containing the pre-seeded cells, with each condition repeated by triplicate. 5 h after transfection, cells were treated with compounds 2-12, AG1-AG5 or DMSO as vehicle. Solution of the compounds in DMEM were prepared at a double concentration than the final desired one, and 0.5 mL of these solutions were added to each well. 24 h after transfection, cells were lysed and luciferase activity was measured using Dual-Luciferase Reporter Assay System E2920 (Promega). To perform the experiment, cells were lysed by adding 50 μL of passive lysis buffer (PLB) (1:5 dilution) to each well and gently stirring for 30 min. Each cell lysate was transferred to a 96-well plate. 50 μL of Dual-Glo reagent were dispensed into each well, tapped gently to mix and incubated for 10 min. Luminescence of firefly luciferase was measured using a Tecan VICTOR Light Luminescent counter equipment. Then, 50 μL of Stop&Glo reagent were dispensed to quench firefly activity and activate Renilla luciferase, incubated for 10 min and measured. Firefly activity was normalized to Renilla luciferase activity. Results were analysed using Welch's corrected parametric t-test.
(§1) The method of Example 2 was repeated using Compounds 70 to 72 (generated as described in Example 1). Compounds 4, 7 and 11 (tested in Example 2) were used as a positive control for REV-ERB inhibitory activity, agonist compound AG2 (also tested in Example 2) and DMSO were also tested as comparators.
The method of Example 2 was repeated using Compounds 64 to 66, 69 and 70 to 73 (generated as described in Example 1). Once again, Compounds 4, 7 and 11 (tested in Example 2) were used as a positive control for REV-ERB inhibitory activity, agonist compound AG2 (also tested in Example 2) and DMSO were also tested as comparators.
as §1, with “16” for “70”, “19, 27, 28 and 44” for “72”, “1). Once again,” for “1).”

NK cells = NK cells development assay (Lin− bone marrow cells co-cultured with OP9 stromal cells, flow cytometry); type: cell-based, mouse
Protocol: Mice. All mice used in this study were wild type on a C57BL/6 background, between six and twelve weeks old. All animal husbandry and experimental procedures were performed according to UK Home Office regulations and institute guidelines.
OP9 cell line and cell culture. OP9 is a stromal cell line from mouse bone marrow known to support lymphocyte differentiation of hematopoietic progenitors when co-culturing with them. OP9-GFP cells were cultured in Iscove's Modified Dulbecco's Medium (IMDM) (Sigma-Aldrich) supplemented with 20% Fetal Bovine Serum (FBS) and 1% Penicillin/[…] (P/S). They were split into 24-well plates with 2500 cells per well two days before transferring Lin− cells onto them. Cells were kept in a 5% CO2 humidified atmosphere at 37 QC. Lineage negative cells isolation from bone marrow. Mouse leg and hip bones were crushed in Phosphate Buffered Saline (PBS) with 2% FBS to release bone marrow cells. Cell suspension was filtered through a […] strainer, topped up to 40 mL with PBS+2% FBS and centrifuged at 500×g for 4 minutes. Cells were resuspended in 2 mL PBS+2% FBS and stained with phycoerythrin (PE)-conjugated cocktail (20 μL anti-B220 (RA3/6B2), 20 μL anti-CD2 (RM2-5), 20 μL anti-Ter119 (TER119), 20 μL anti-NK1.1 (PK136), 5 μL anti-CD11b (M1/70) and 5 μL Gr1 (RB6-8C5) antibodies (all from eBioscience) for 5 minutes at 4° C. Then, cells were washed, centrifuged and incubated with anti-PE Microbeads (Miltenyi) for 15 minutes at 4° C. Next, cells were washed with PBS and passed through LD column (Miltenyi), enabling the negative selection of unstained Lin− cells that flowed through the column. 50 μL of cells were taken to check the purity after depletion using flow cytometry. In vitro NK cell development from lineage negative cells. Lin− cells were plated in 24-well plates with 5×10^5 cells in 1 mL of Dulbecco's Modified Eagle Medium (DMEM) (Sigma-Aldrich) supplemented with 10% embryonic stem cell-qualified FBS (ES-FBS), 1% P/S, 50 μM β-Mercaptoethanol (β-ME), 10 ng/ml Flt3-ligand (Flt3L) (R&D Systems), 10 ng/mL IL-7 (R&D Systems) and 100 ng/mL stem cell factor (SCF) (R&D Systems) per well and cultured for 2 days. Cells were transferred for co-culture with OP9-GFP stromal cells in 24-well plates with 3×10^4 cells in 1 mL of Alpha MEM (Sigma-Aldrich) supplemented with 20% ES-FBS, 1% P/S, 50 μM β-ME and 10 ng/mL IL-15 (R&D Systems) per well and cultured for […]. Compounds were added on day 2, at the same time as cells were transferred together with OP9. Supernatant was removed on day 5, and new media was added with compound. Cells were kept in a 5% CO2 humidified atmosphere at 37° C.
Flow cytometry. After being cultured for 7 days, cells were harvested, filtered through 40 μm strainers to remove OP9 cells and washed with PBS. After centrifuging at 500×g for 5 minutes at 4° C., they were stained with appropriate fluorochrome conjugated antibodies with 1:300 dilution in 100 μL of fluorescent activated cell sorting (FACS) buffer (PBS with 1% BSA) for 15 minutes at 4° C. in the dark. Antibodies include CD3(e450), NK1.1(APC), NKp46(Percp e710) and PI, all of which are anti-mouse and from eBioscience. Cells were then washed in 1 ml FACS buffer, centrifuged and resuspended in 300 μL FACS buffer. Compensation was set up using Anti-Mouse Ig, k and Anti-Rat/Hamster Ig, k Compensation Particles Set (BDTM Combead). Flow cytometry analysis was carried out using BD LSRFortessa™ cell analyser (Becton Dickinson Bioscience) and data analysis was performed using FlowJo.
The method of Example 7 was repeated using 5 μM of Compounds 7 and 11, and 5 and 10 μM of Compound 72.

[1] = FIG. 3, three independent experiments in triplicate, comparison with SR8278
[2] = FIG. 4, two independent experiments in triplicate, comparison with SR8278
[3] = FIG. 7, three independent experiments in triplicate
[4] = 5 μM, FIG. 10, compared with SR8278
[5] = 10 μM, FIG. 9, compared with SR8278
[6] = FIG. 10 legend, concentration not stated there (5 μM for 7 and 11, 5 and 10 μM for 72), compared with SR8278 and AG2

Effect on REV-ERBα activity (Bmal-luc luciferase expression) (REV-ERBα; [2]) | Effect on REV-ERBα activity (Bmal-luc luciferase expression) (REV-ERBα; [3]) | SMILES | Effect on REV-ERBα activity (Bmal-luc luciferase expression) (REV-ERBα; [1]) | Total number of NK cells (NK cells; [4]) | Total number of NK cells (NK cells; [5]) | Total number of NK cells (NK cells; [6]) | Total number of NK cells (NK cells; 10 μM, FIG. 10, compared with SR8278)
significant antagonistic activity | significant antagonistic activity | CCOC(=O)C1Cc2ccccc2CN1C(=O)c1ccco1 (racemic) [Compound 7, Ethyl 2-(furan-2-carbonyl)-1,2,3,4-tetrahydrolsoquinoline-3-carboxylate] | significant increase in luciferase expression compared with SR8278; also recorded: significant antagonistic activity | significant increase in the total number of NK cells compared with SR8278 | significant increase in NK cell number | significant increase in NK cell number | 
 |  | CCOC(=O)C1Cc2ccccc2CN1C(=O)c1ccno1 (racemic) [Compound 8, Ethyl 2-(isoxazole-5-carbonyl)-1,2,3,4-tetrahydrolsoquinoline3-carboxylate] | significant increase in luciferase expression compared with SR8278; also recorded: significant antagonistic activity |  |  |  | 
significant antagonistic activity | significant antagonistic activity | CCOC(=O)C1Cc2ccccc2CN1C(=O)c1ocnc1C (racemic) [Compound 11, Ethyl 2-(4-methyloxazole-5-carbonyl)-1,2,3,4-tetrahydrolsoquinoline-3-carboxylate] | significant increase in luciferase expression compared with SR8278; also recorded: significant antagonistic activity | significant increase in the total number of NK cells compared with SR8278 | increase in the total number of NK cells compared with SR8278 | significant increase in NK cell number | 
 |  | CCOC(=O)C1Cc2ccccc2CN1C(=O)c1scnc1C (racemic) [Compound 12, Ethyl 2-(4-methylthiazole-5-carbonyl)-1,2,3,4-tetrahydrolsoquinoline-3-carboxylate] | significant increase in luciferase expression compared with SR8278; also recorded: significant antagonistic activity |  |  |  | 
 |  | CCOC(=O)C1Cc2ccccc2CN1C(=O)c1cccc2ccccc12 (centres unmarked) [AG1] | agonists |  |  |  | 
 | agonist | CSc1ccc(C(=O)N2Cc3ccccc3CC2COc2ccc(OC(C)(C)C)cc2)s1 (centres unmarked) [AG5] | agonists |  |  |  | 

SMILES | Effect on REV-ERBα activity (Bmal-luc luciferase expression) (REV-ERBα; [2]) | Effect on REV-ERBα activity (Bmal-luc luciferase expression) (REV-ERBα; [3]) | Effect on REV-ERBα activity (Bmal-luc luciferase expression) (REV-ERBα; [1]) | Total number of NK cells (NK cells; [4]) | Total number of NK cells (NK cells; [5]) | Total number of NK cells (NK cells; [6]) | Total number of NK cells (NK cells; 10 μM, FIG. 10, compared with SR8278)
CCOC(=O)C1Cc2ccccc2CN1C(=O)c1cccnc1F (racemic) [Compound 27] |  | Inhibitory effect on REV-ERB was observed; also recorded: significant antagonistic activity |  |  |  |  | 
CCOC(=O)C1Cc2ccccc2CN1C(=O)c1ccnc(C)c1 (racemic) [Compound 28] |  | Inhibitory effect on REV-ERB was observed; also recorded: significant antagonistic activity |  |  |  |  | 
CCOC(=O)CN(Cc1ccccc1)C(=O)c1ccco1 (racemic) [Compound 72] | inhibitory effect on REV-ERB greater than that obtained using SR8278; also recorded: significant antagonistic activity |  |  | significant increase in the total number of NK cells compared with SR8278 |  | significant increase in NK cell number | significant increase in the total number of NK cells compared with SR8278
